“And” between values parts separate entries of the source, which are not always exact repeats. Equal entries are not always repeated. Where two headings read alike, the source gives them in different places. No end group written: not given here.
What was measured:
PLY [1] = biological target: T1, PLY (Streptococcus pneumoniae serotype 4, UniProt P0C2J9); type: cell-based
PLY [2] = biological target: T1, PLY; type: cell-based; remark: listed apart in the source
S. pyogenes type M1T1 [3] = assay: Hemolytic activity of whole bacteria, S. pyogenes; type: cell-based, Streptococcus pyogenes; conditions: 100 μM peptide
Experimental: All samples were assayed in triplicates.

SLO [4] = biological target: T2, SLO (Streptococcus pyogenes serotype M1, UniProt P0C0I3)
PLY [5] = biological target: T1, PLY; conditions: for % cytotoxicity relative to positive control (lysis buffer), LDH: 18 h
S. pneumoniae T4 [6] = assay: Bacterial invasion assay, 3D lung epithelial models, CFU after gentamicin; type: cell-based, Streptococcus pneumoniae; conditions: for Mean Colonies at 100X dil, bacterial invasion of lung epithelium models / % entry bacteria= (bacteria uptaken/Input)*100: T4, MOI 10, 2h, 100 μM peptide
LLO [7] = biological target: T3, LLO (Listeria monocytogenes serovar 1/2a, UniProt P13128); assay: Live imaging of cytolysis of THP-1 macrophages by LLO; type: cell-based; conditions: 0.5 μg/ml LLO, 100 μM, 20 min
LLO [8] = biological target: T3, LLO; assay: Hemolysis assay with purified LLO; conditions: 1 μg/ml toxin
Experimental: Human blood from anonymous healthy donors (obtained from Karolinska University Hospital) was diluted 1:100 in PBS with 0.5 mM DTT and mixed 1:1 with twofold serial dilutions of 10^8 CFUs of bacteria or 1 μg/ml purified bacterial toxins in 96‐well plates. The MRC‐1 peptides were serially diluted 10‐fold (1–1,000 μM) in PBS and added to the wells prior to addition of blood. The blood was co‐incubated with whole bacteria or purified toxins at 37°C for 1 h, and after 50 min, 0.1% triton X‐100 was added to the positive control wells. Cells were spun down at 400 g for 15 min and the absorbance of the supernatants was measured at 540 nm in a microplate reader. Percentage of lysis compared to the toxin alone was calculated. All samples were assayed in triplicates.

S. pyogenes type M1T1 [9] = assay: Co-localization of intracellular S. pyogenes with MRC-1 and LC3B in DCs; type: cell-based, Streptococcus pyogenes; conditions: 100 μM peptide
LLO [10] = biological target: T3, LLO; assay: ELISA, binding of plate-bound MRC-1 peptides to LLO; conditions: plate-bound peptide, LLO 0–0.5 μM
Experimental: (§1) Briefly, 96‐well flat‐bottomed plates (Sigma, UK) were coated overnight with 10 μM of MRC‐1 peptides in coating buffer (15 mM Na2CO3, 35 mM NaHCO3, pH 9.6). Wells were blocked with 200 μl of 10% (v/v) FBS in PBS for 2 h and then washed three times with PBS, 0.05% (v/v) Tween 20 (Sigma). 50 μl of purified PLY, LLO, and SLO (0–1 μM) in PBS was added and incubated at 37°C for 1 h. 1 μM BSA was added to control wells. Wells were washed with PBS and bound proteins were detected by adding 100 μl of mouse α‐PLY (1:1,000), mouse α‐SLO (1:400), and rabbit α‐LLO (1:1,500) (Abcam), respectively, in blocking buffer. Plates were incubated with 100 μl of secondary anti‐rabbit/anti‐mouse IgG HRP (1:2,000) dilution in blocking buffer. Bound antibodies were detected by adding 100 μl of tetramethylbenzidine substrate solution for 30 min. Phosphoric acid (1 M) was used as the stop solution and absorbance was measured at 450 nm.

[11] = system: PLY‐producing pneumococcal strain T4; assay: Binding of FITC-labeled peptides to pneumococci, fluorescence microscopy; set-up: species or system Streptococcus pneumoniae
S.pneumoniae T4R = assay: Co-localization of intracellular T4R with MRC-1 and LC3B in DCs; type: cell-based, Streptococcus pneumoniae; conditions: for % bacteria colocalized with MRC-1 / % bacteria colocalized with LC3B / number of bacteria (of n=50) colocalized with LC3B / number of bacteria (of n=50) colocalized with MRC-1: T4R in DCs
S. pneumoniae T4 [12] = assay: Zebrafish embryo infection model, survival; type: in vivo, zebrafish (Danio renio); conditions: 500 CFU T4 microinjected into yolk sac, co-administration 1 nM
Experimental: The AB strain of zebrafish embryos (Danio renio) was collected within first hours post‐fertilization (hpf) from the zebrafish core facility at Karolinska Institutet, Stockholm, and maintained at 28.5°C in E3 medium (5.0 mM NaCl, 0.17 mM KCl, 0.33 mM CaCl2, 0.33 mM MgSO4). […] Microinjection was done using a glass needle (Harvard apparatus, Quebec, Canada) controlled with a micromanipulator Narishige MN‐153 (Narishige International Limited, London, UK) connected to an Eppendorf FemtoJet express (Eppendorf AG, Hamburg, Germany). The injected volume was previously optimized by injecting of a droplet into mineral oil over a scale bar. The embryos were randomly assigned to the treatment groups and a minimum of 156 embryos/group was used. To determine the actual number of bacteria in the injected volume, one drop was collected into the agar plates, and 1–3 embryos were digested and plated just immediately after injection. The infected embryos were incubated at 30°C for 96 h. The infected embryos were monitored for disease symptoms and survival under a stereomicroscope twice a day up to 4 days post‐injection. Absence of heartbeat and movement was interpreted as a sign of death. All experiments were performed thrice.

SLO [13] = biological target: T2, SLO; type: binding
SLO [14] = biological target: T2, SLO; type: cell-based
BSA = assay: ELISA, binding of plate-bound MRC-1 peptides to BSA (negative control); conditions: plate-bound peptide
Experimental: as §1

PLY [15] = biological target: T1, PLY; type: cell-based; remark: listed apart in the source
LC3B = type: cell-based, human
SLO [16] = biological target: T2, SLO; type: cell-based; remark: listed apart in the source
LLO [17] = biological target: T3, LLO; assay: Cytokine ELISA, THP-1 macrophages stimulated with LLO; type: cell-based; conditions: 18 h; for IL-8 levels in THP-1 macrophages: LLO 0.5 μg/ml, 100uM
Experimental: Human monocytic leukemia THP‐1 cells (ATCC TIB‐202) were cultivated in R10 medium and maintained at density of 10^6 cells/ml. For differentiation into macrophages, THP‐1 cells were treated for 48 h with 20 ng/ml of phorbol myristate acetate (Sigma).

PLY [18] = biological target: T1, PLY; type: cell-based; remark: listed apart in the source

T2 sequence (P0C0I3 34-571 limits assumed): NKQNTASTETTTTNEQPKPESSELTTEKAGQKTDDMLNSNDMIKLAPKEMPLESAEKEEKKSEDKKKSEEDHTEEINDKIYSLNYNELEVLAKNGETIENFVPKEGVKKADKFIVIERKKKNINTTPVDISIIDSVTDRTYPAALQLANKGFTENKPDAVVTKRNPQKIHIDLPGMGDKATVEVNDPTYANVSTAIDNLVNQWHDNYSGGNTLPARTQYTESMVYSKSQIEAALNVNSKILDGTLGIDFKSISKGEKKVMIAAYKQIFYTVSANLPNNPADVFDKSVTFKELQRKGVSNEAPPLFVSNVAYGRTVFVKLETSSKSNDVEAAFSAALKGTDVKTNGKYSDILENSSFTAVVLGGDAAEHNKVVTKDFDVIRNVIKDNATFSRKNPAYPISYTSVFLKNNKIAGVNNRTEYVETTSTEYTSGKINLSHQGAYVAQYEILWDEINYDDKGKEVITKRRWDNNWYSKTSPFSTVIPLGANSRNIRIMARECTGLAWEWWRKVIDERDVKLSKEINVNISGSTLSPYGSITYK
T1 sequence (P0C2J9 whole entry, looked up): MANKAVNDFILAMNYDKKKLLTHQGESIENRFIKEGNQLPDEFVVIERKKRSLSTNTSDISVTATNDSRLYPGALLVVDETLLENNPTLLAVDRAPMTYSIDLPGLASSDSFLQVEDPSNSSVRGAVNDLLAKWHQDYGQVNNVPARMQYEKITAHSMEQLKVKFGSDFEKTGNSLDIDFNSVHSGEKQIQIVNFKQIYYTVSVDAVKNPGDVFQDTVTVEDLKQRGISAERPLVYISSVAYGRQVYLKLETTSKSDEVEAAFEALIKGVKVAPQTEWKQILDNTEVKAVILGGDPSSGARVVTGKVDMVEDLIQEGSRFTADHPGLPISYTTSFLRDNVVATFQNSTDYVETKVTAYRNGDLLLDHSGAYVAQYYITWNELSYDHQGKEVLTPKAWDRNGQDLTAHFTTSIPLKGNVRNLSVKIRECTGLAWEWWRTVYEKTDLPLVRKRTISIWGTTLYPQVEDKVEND
T3 sequence (P13128 25-529): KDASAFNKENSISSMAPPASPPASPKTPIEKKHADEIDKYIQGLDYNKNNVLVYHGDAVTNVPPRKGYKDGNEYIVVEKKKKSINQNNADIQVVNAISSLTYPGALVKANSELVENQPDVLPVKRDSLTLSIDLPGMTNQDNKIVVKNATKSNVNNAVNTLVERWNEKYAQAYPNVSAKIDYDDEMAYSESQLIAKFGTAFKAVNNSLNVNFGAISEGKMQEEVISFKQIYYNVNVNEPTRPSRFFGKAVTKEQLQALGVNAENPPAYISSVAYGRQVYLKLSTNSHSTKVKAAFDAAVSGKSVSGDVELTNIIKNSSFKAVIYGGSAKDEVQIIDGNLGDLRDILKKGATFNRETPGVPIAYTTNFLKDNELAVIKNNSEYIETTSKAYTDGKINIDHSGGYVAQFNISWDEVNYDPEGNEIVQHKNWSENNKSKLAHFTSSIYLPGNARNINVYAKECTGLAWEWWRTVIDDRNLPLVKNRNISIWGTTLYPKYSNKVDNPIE

FTWSDGSPVSYEN [P2]
loss of GFP expression in 3D lung epithelial model (PLY [1]): significantly lower
release of IL‐8, TNF‐α and IL‐12 by THP-1 macrophages, PLY (PLY [2]): significantly reduced
hemolytic activity of S. pyogenes type M1T1 (S. pyogenes type M1T1 [3]): significantly reduced
cell death of macrophages induced by SLO, LDH release (SLO [4]): significantly reduced cell death
cell death of macrophages induced by PLY, LDH release (PLY [5]): significantly reduced cell death
% cytotoxicity relative to positive control (lysis buffer), LDH (PLY [5]; 100 μM): 50.12% and 52.81% and 49.35%
% cytotoxicity relative to positive control (lysis buffer), LDH (PLY [5]): 52.47%
number of invading bacteria in 3D lung epithelial model (S. pneumoniae T4 [6]; T4, 100 μM peptide, 2 h): significantly reduced
Mean Colonies at 100X dil, bacterial invasion of lung epithelium models (S. pneumoniae T4 [6]; biological replicate n=1): 13.3
% entry bacteria= (bacteria uptaken/Input)*100 (S. pneumoniae T4 [6]; n=1): 2.25%
% entry bacteria= (bacteria uptaken/Input)*100 (S. pneumoniae T4 [6]; n=2): 2.59%
Mean Colonies at 100X dil, bacterial invasion of lung epithelium models (S. pneumoniae T4 [6]; n=2): 15.3
% entry bacteria= (bacteria uptaken/Input)*100 (S. pneumoniae T4 [6]; n=3): 2.54%
Mean Colonies at 100X dil, bacterial invasion of lung epithelium models (S. pneumoniae T4 [6]; n=3): 15
cytolysis by LLO in live imaging (LLO [7]): protected the cells from cytolysis
inhibition of hemolysis induced by purified LLO (LLO [8]; at concentrations ranging from 10 to 100 μM): up to 50%
IC50 (LLO [8]; read-out: ED50 (median effective dose) vs purified LLO, hemolysis, regression analysis): 22.3 µM
co-staining of intracellular S. pyogenes M1T1 with LC3B (S. pyogenes type M1T1 [9]): co‐stained with LC3B
binding to LLO in ELISA (LLO [10]): bound dose‐dependently
binding of FITC-labeled peptide to PLY mutant T4Δply ([11]; fluorescence microscopy): not to the PLY‐deficient strain
binding of FITC-labeled peptide to pneumococcal strain T4 ([11]; fluorescence microscopy): bound to T4
binding of FITC-labelled peptide to capsular mutant strain T4R ([11]; response to reviewers, Figure 4): binds to T4R
co-localization of intracellular T4R with MRC‐1 and LC3B (S.pneumoniae T4R; DCs, 100 μM peptide): did not co‐localize with MRC‐1, but co‐stained with LC3B
% bacteria colocalized with MRC-1 (S.pneumoniae T4R; MOI 10, 100 μM peptide, n=50 bacteria, experiment 1 of 2): 30%
% bacteria colocalized with LC3B (S.pneumoniae T4R; experiment 1 of 2): 70%
number of bacteria (of n=50) colocalized with LC3B (S.pneumoniae T4R; experiment 1 of 2): 35
number of bacteria (of n=50) colocalized with MRC-1 (S.pneumoniae T4R; experiment 1 of 2): 15
% bacteria colocalized with LC3B (S.pneumoniae T4R; experiment 2 of 2): 76%
% bacteria colocalized with MRC-1 (S.pneumoniae T4R; experiment 2 of 2): 24%
number of bacteria (of n=50) colocalized with LC3B (S.pneumoniae T4R; experiment 2 of 2): 38
number of bacteria (of n=50) colocalized with MRC-1 (S.pneumoniae T4R; experiment 2 of 2): 12
survival of infected zebrafish embryos (S. pneumoniae T4 [12]): significantly improved the survival
binding to SLO in ELISA (SLO [13]): bound dose‐dependently
cytolysis by SLO in live imaging (SLO [14]): protected the cells from cytolysis
binding to BSA in ELISA (BSA): not to BSA
inhibition of PLY-induced hemolysis (PLY [15]): up to 50%
inhibition of hemolysis induced by purified PLY (PLY [15]): up to 50%
IC50 (PLY [15]; read-out: ED50 (median effective dose) vs purified PLY, human, blood, 60 min): 6.6 µM
expression of LC3B-I and LC3B-II, western blotting (LC3B): induced higher expression
inhibition of hemolysis induced by purified SLO (SLO [16]): up to 50%
IC50 (SLO [16]; read-out: ED50 (median effective dose) vs purified SLO, human, blood, 60 min): 9.8 µM
release of IL‐8, TNF‐α and IL‐12 by THP-1 macrophages, LLO (LLO [17]; 0.5 μg/ml toxin, 100 μM peptide): significantly reduced
IL-8 levels in THP-1 macrophages (LLO [17]; experiment 1 of 3): 437.8 pg/mL
IL-8 levels in THP-1 macrophages (LLO [17]; experiment 2 of 3): 441.8 pg/mL
IL-8 levels in THP-1 macrophages (LLO [17]; experiment 3 of 3): 448.5 pg/mL
release of IL‐8 and TNF‐α in lung tissue model (PLY [18]): significantly reduced release
